Assay results published in US8013006B2.
Like-named read-outs stand apart in the source and are kept apart here.

Test system: HCV replicon
Assay: microbe, parasite or virus in culture
Type: cell-based
[1] = Replicon IC50 values are determined by firefly luciferase signal, bicistronic replicon, 2 days, read-out: Replicon IC5Os

Row | Compound | IC50 [1] | IC50 (Hepatitis C virus, 48 h, read-out: Replicon IC5Os μM)
1 | CCn1c(C#Cc2ccc(OC)cc2C)c(C#N)c2ccc(OC)cc21 [Compound 137] | 0.5 to 2 µM | 
2 | CCn1cc(C#N)c2cc(-c3cccs3)ccc21 [Compound 140] | > 2 µM | 
3 | CCn1cc(C#N)c2cc(-c3ccoc3)ccc21 [Compound 142] | > 2 µM | 
4 | CCn1c(C#Cc2ccc(N3CCCCC3)cc2)c(C#N)c2ccc(OC)cc21 [Compound 143] | > 2 µM | 
5 | CCn1c(C#Cc2cccc(Cl)c2)c(C#N)c2ccc(OC)cc21 [Compound 146] | 0.5 to 2 µM | 
6 | CCn1c(C#Cc2ccc(N(C)C)cc2)c(C#N)c2ccc(OC)cc21 [Compound 147] | 0.5 to 2 µM | 
7 | CCn1c(C#Cc2ccc(Cl)cc2)c(C#N)c2ccc(OC)cc21 [Compound 148] | 0.5 to 2 µM | 
8 | CCOc1ccc(C#Cc2c(C#N)c3ccc(OC)cc3n2CC)cc1 [Compound 149] | 0.5 to 2 µM | 
9 | CCn1c(C#Cc2ccccc2F)c(C#N)c2ccc(OC)cc21 [Compound 150] | 0.5 to 2 µM | 
10 | CCn1c(C#Cc2cccc(F)c2)c(C#N)c2ccc(OC)cc21 [Compound 151] | 0.5 to 2 µM | 
11 | CCn1c(C#Cc2ccc(NC(=O)C(C)C)cc2)c(C#N)c2ccc(OC)cc21 [Compound 152] | > 2 µM | 
12 | CCn1c(C#Cc2ccc(OC)c(OC)c2)c(C#N)c2ccc(OC)cc21 [Compound 159] | 0.5 to 2 µM | 
13 | CCn1c(C#Cc2ccc(NC(=O)[C@@H]3CCCN3)cc2)c(C#N)c2ccc(OC)cc21 [Compound 162] | > 2 µM | 
14 | CCn1c(C#Cc2ccc(NC(=O)c3c[nH]cn3)cc2)c(C#N)c2ccc(OC)cc21 [Compound 163] | 0.5 to 2 µM | 
15 | CCC(=O)Nc1ccc(C#Cc2c(C#N)c3ccc(O)cc3n2CC)cc1 [Compound 164] | 0.5 to 2 µM | 
16 | CCn1c(C#Cc2ccc(NC(=O)CN)cc2)c(C#N)c2ccc(OC)cc21 [Compound 165] | > 2 µM | 
17 | CCn1c(C#Cc2ccccc2N)c(C#N)c2ccc(OC)cc21 [Compound 169] | 0.5 to 2 µM | 
18 | CCn1c(C#Cc2cccs2)c(C#N)c2ccc(OC)cc21 [Compound 170] | 0.5 to 2 µM | 
19 | CCn1c(C#Cc2ccsc2)c(C#N)c2ccc(OC)cc21 [Compound 171] | 0.5 to 2 µM | 
20 | CCn1c(C#Cc2ccccn2)c(C#N)c2ccc(OC)cc21 [Compound 174] | 0.5 to 2 µM | 
21 | CCn1c(C#Cc2ccc(OC)cc2)c(C#N)c2cc(OC)ccc21 [Compound 177] | 0.5 to 2 µM | 
22 | CCn1c(C#Cc2ccc(C(F)(F)F)cc2)c(C#N)c2cc(OC)ccc21 [Compound 178] | > 2 µM | 

Row | Compound | IC50 [1] | IC50 (Hepatitis C virus, 48 h, read-out: Replicon IC5Os μM)
23 | CCn1cc(C#N)c2cc(C(F)(F)F)ccc21 [Compound 179] | 0.5 to 2 µM | 
24 | CCn1c(-c2ccc(N(C)S(=O)(=O)CC)cc2)c(C#N)c2ccc(OC)cc21 [Compound 181] | 0.5 to 2 µM | 
25 | CCn1c(C#Cc2cccc3ccccc23)c(C#N)c2ccc(O)cc21 [Compound 184] | 0.5 to 2 µM | 
26 | CCn1c(C#Cc2ccc(OC)cc2)c(C#N)c2ccc(O)cc21 [Compound 186] | 0.5 to 2 µM | 
27 | CCn1c(C#Cc2ccc(Cl)cc2)c(C#N)c2ccc(O)cc21 [Compound 187] | 0.5 to 2 µM | 
28 | CCn1c(-c2ccc(NS(=O)(=O)CC)cc2)c(C#N)c2ccc(O)cc21 [Compound 190] | 0.5 to 2 µM | 
29 | CCn1c(-c2ccc(N(C)S(C)(=O)=O)cc2)c(C#N)c2ccc(O)cc21 [Compound 191] | > 2 µM | 
30 | CCn1c(C#Cc2ccc(NC(=O)C3CCCC3)cc2)c(C#N)c2ccc(O)cc21 [Compound 195] | 0.5 to 2 µM | 
31 | CCn1c(C#Cc2ccc(OC)cc2)c(C#N)c2ccc(C(F)(F)F)cc21 [Compound 199] | > 2 µM | 
32 | CCn1c(C#Cc2cccc(OC)c2)c(C#N)c2ccc(C(F)(F)F)cc21 [Compound 202] | 0.5 to 2 µM | 
33 | CCn1c(NC(C)=O)c(C#N)c2ccc(OC)cc21 [Compound 203] | 0.5 to 2 µM | 
34 | CCn1c(NC(=O)c2ccccc2)c(C#N)c2ccc(OC)cc21 [Compound 204] |  | < 0.5 µM
35 | CCn1c(C#Cc2cccc(NS(C)(=O)=O)c2)c(C#N)c2ccc(OC)cc21 [Compound 208] | 0.5 to 2 µM | 
36 | CCn1c(C#Cc2cccc(NS(=O)(=O)C(C)C)c2)c(C#N)c2ccc(OC)cc21 [Compound 210] | 0.5 to 2 µM | 
37 | CCn1c(C#Cc2cccc(NC(=O)C(C)(C)C)c2)c(C#N)c2ccc(OC)cc21 [Compound 212] | 0.5 to 2 µM | 
38 | CCn1c(NC(=O)c2cccc(F)c2)c(C#N)c2ccc(OC)cc21 [Compound 214] | < 0.5 µM | 
39 | CCn1c(NC(=O)c2ccc(C#N)cc2)c(C#N)c2ccc(OC)cc21 [Compound 215] | 0.5 to 2 µM | 
40 | CCn1c(C#Cc2cccc(N3CCNC3=O)c2)c(C#N)c2ccc(OC)cc21 [Compound 222] | 0.5 to 2 µM | 
41 | CCn1c(C#Cc2ccc(N)cc2)c(C#N)c2cc(OC)ccc21 [Compound 223] | 0.5 to 2 µM | 
42 | CCn1c(C#Cc2ccc(NC(C)=O)cc2)c(C#N)c2cc(OC)ccc21 [Compound 224] | 0.5 to 2 µM | 
43 | CCC(=O)Nc1ccc(C#Cc2c(C#N)c3cc(OC)ccc3n2CC)cc1 [Compound 225] | 0.5 to 2 µM | 
44 | CCn1c(C#Cc2ccc(NC(=O)COC)cc2)c(C#N)c2cc(OC)ccc21 [Compound 228] | > 2 µM | 

Row | Compound | IC50 [1] | IC50 (Hepatitis C virus, 48 h, read-out: Replicon IC5Os μM)
45 | CCOc1ccc(-c2c(C#N)c3cc(OC)ccc3n2CC)cc1 [Compound 229] | > 2 µM | 
46 | COc1ccc2c(C#N)c(C#Cc3cccc4ccccc34)[nH]c2c1 [Compound 230] | > 2 µM | 
47 | COc1ccc2c(C#N)c(C#Cc3cccc(O)c3)[nH]c2c1 [Compound 231] | > 2 µM | 
48 | COc1ccc2c(C#N)c(C#Cc3cccc(Cl)c3)[nH]c2c1 [Compound 232] | > 2 µM | 
49 | COc1ccc2c(C#N)c(C#Cc3ccc(N)cc3)[nH]c2c1 [Compound 234] | > 2 µM | 
50 | COc1ccc2c(C#N)c(C#Cc3ccc(N(C)C)cc3)[nH]c2c1 [Compound 235] | 0.5 to 2 µM | 
51 | COc1ccc2c(C#N)c(C#Cc3ccc(C)cc3)[nH]c2c1 [Compound 236] | > 2 µM | 
52 | COc1cccc(C#Cc2[nH]c3cc(OC)ccc3c2C#N)c1 [Compound 237] | > 2 µM | 
53 | COc1ccc2c(C#N)c(C#Cc3ccccc3)[nH]c2c1 [Compound 238] | > 2 µM | 
54 | CCn1c(-c2ccc(N)cc2)c(C#N)c2cc(OC)ccc21 [Compound 239] | > 2 µM | 
55 | CCn1c(-c2ccc(C(=O)OC)cc2)c(C#N)c2cc(OC)ccc21 [Compound 240] | > 2 µM | 
56 | CCn1c(-c2ccc(NC(C)=O)cc2)c(C#N)c2cc(OC)ccc21 [Compound 242] | > 2 µM | 
57 | CCn1c(-c2ccc(C(=O)N3CCCC3)cc2)c(C#N)c2cc(OC)ccc21 [Compound 246] | > 2 µM | 
58 | CCn1c(-c2ccc(O)cc2)c(C#N)c2ccc(OC)cc21 [Compound 247] | > 2 µM | 
59 | CCn1c(-c2ccc(OCCO)cc2)c(C#N)c2ccc(OC)cc21 [Compound 249] | 0.5 to 2 µM | 
60 | CCn1c(-c2ccc(SC)cc2)c(C#N)c2ccc(OC)cc21 [Compound 250] | > 2 µM | 
61 | COc1ccc2c(C#N)c(-c3ccc4c(c3)OCO4)n(C)c2c1 [Compound 254] | > 2 µM | 
62 | CCn1c(-c2ccc(O)cc2)c(C#N)c2ccc(C(F)(F)F)cc21 [Compound 256] | > 2 µM | 
63 | CCn1c(-c2ccc(N)cc2)c(C#N)c2ccc(C(F)(F)F)cc21 [Compound 257] | > 2 µM | 
64 | CCn1c(-c2cccc(N)c2)c(C#N)c2ccc(C(F)(F)F)cc21 [Compound 258] | > 2 µM | 
65 | CCn1c(-c2ccc(N(C)C)cc2)c(C#N)c2ccc(C(F)(F)F)cc21 [Compound 259] | > 2 µM | 
66 | CCn1c(-c2ccc3c(c2)OCO3)c(C#N)c2ccc(C(F)(F)F)cc21 [Compound 260] | > 2 µM | 
